Data from patent US5541187A, “6-heterocycyclyl pyrazolo[3,4-d]pyrimidin-4-ones and compositions and method of use thereof” (Sterling Winthrop Inc., priority 1993, dated 1996).

Tests used:
[1] = test system: aortic rings (aortic smooth muscle strips); test: Procedure 1: in vitro reversal of nitroglycerin tolerance, relaxation of aortic rings; format: cell-based, Male Sprague-Dawley rats; conditions: Rattus norvegicus, n=8, mean ±S.E.M.
Description: Male Sprague-Dawley rats (250-350 g body weight) were deeply anesthetized with pentobarbital (50 mg/kg) and then euthanized by exsanguination. The thoracic and abdominal cavities were immediately opened and the aorta was removed. In order to remove the influence of endogenous endothelial relaxing factor (EDRF), the entire length of the aorta was functionally denuded of the endothelial layer by gently scraping the luminal surface with a solid polyethylene catheter. The effectiveness of this procedure was tested in each preparation at the end of the experiment by measuring the vasorelaxant response to 1 μM carbachol, a stimulator of EDRF release. […] Maximal change in contractile tension over a series of nine consecutive 10 minute intervals was recorded and expressed as percent relaxation relative to post pre-treatment, phenylephrine-induced tension. Mean EC50 values were calculated from percent relaxation of individual tissues using a statistical program according to Tallarida and Murray, (Manual of Pharmacologic Calculations with Computer Programs, Springer-Verlag, N.Y. 1987) and are expressed as mean ±S.E.M.

[2] = test system: Spontaneously hypertensive rats; test: Procedure 2: in vivo reversal of nitroglycerin tolerance, mean arterial pressure; set-up: species or system rat (spontaneously hypertensive rats); conditions: nitroglycerin 10 μg/kg i.v.
Description: Spontaneously hypertensive rats (16-19 weeks of age) were made nitroglycerin tolerant by injecting […] nitroglycerin s.c., 3-times/day for 3 days. While conscious and freely moving, the decrease in mean arterial pressure (MAP) in response to a challenge dose of nitroglycerin (10 μg/kg, i.v. bolus) was utilized to confirm tolerance.

For `O=[N+]([O-])OCC(CO[N+](=O)[O-])O[N+](=O)[O-]` [nitroglycerin, reference compound], the EC50 ([1]; 1 h, tolerant strips, pre-exposed to 550 μM nitroglycerin for 60 minutes, p <0.01) was 1550 ± 637 nM, the EC50 ([1]; vehicle treated, control strips) was 77 ± 16 nM and the “change in MAP in response to nitroglycerin injection” value ([2]; non-tolerant rats (n=6)) was -19 mmHg. The “change in MAP in response to nitroglycerin injection” value ([2]; tolerant rats (n=11)) was -11 mmHg.
